Measured values as given in PubChem BioAssay AID2060894 (Molecular Pharmacology Branch, DTP, NCI, 2025).

System: K12877-001-R-J1-PDC complex spheroid viability
Assay: Anticancer human tumor K12877-001-R-J1-PDC patient-derived lung adenocarcinoma cell line growth inhibition [RAS]
Conditions: for IC50: curve of first compound; for viability, T/C: stronger effect = lower value
Description: RAS pathway inhibitors in Combinations in Complex Spheroids
A high-throughput screen of multi-cell type tumor spheroids was designed to identify active combinations of RAS pathway inhibitors and targeted small molecules. Complex spheroids include a stromal component modeled by human endothelial cells (HUVEC) and fibroblasts modeled by human mesenchymal stem cells (MSCs). The concentration ranges selected for each drug and investigational agent were based upon clinically achievable concentrations if the clinical Cmax of the agent was known.
Compounds. The drugs and investigational agents: abemaciclib (NSC768073), cobimetinib (NSC768068), divarasib (GDC6063, NSC841802), docetaxel (NSC628503), GDC-1971 (RLY-1971, NSC841576), gemcitabine (NSC613327), inavolisib (NSC800729), ipatasertib (NSC767898), KB-0742 (NSC834161), MRTX-1133 (NSC836407), osimertinib (NSC779217), RMC-4630 (NSC839698), RMC-6236 (NSC851965), RMC-6291 (NSC852671), Ro-3306 (NSC812927), sapanisertib (NSC764658), SN-38 (NSC673596), staurosporine (NSC755774), SY5609 (NSC837396), and tovorafenib (DAY101, NSC766906), were obtained from the National Cancer Institute (NCI) Developmental Therapeutics Program Chemical Repository. The FDA-approved anticancer drug set is available from the NCI Developmental Therapeutics Program. […] The stock solutions were prepared in dimethyl sulfoxide (DMSO, Sigma-Aldrich, St. Louis, MO, cat. D2650) at 800-fold the tested concentration and stored at -70 degrees C prior to their use. All drugs and investigational agents were tested over a range starting from a high concentration at or near the clinical Cmax and decreasing in half-log increments. If the clinical Cmax for an agent had not been determined, the highest concentration tested was 10 microM.
Cell Culture. All cells were maintained in an incubator at 37 degrees C and 5% CO2 with 95% humidity. The PDC lines were cultured according to standard operating procedures established by the NCI PDMR. All PDCs were thawed and cultured in Matrigel-coated flasks prepared with a working solution of 1X Ham's F-12 nutrient mix, without supplementation (Invitrogen, Waltham, MA, cat. 11765054), 100 U/mL penicillin-streptomycin (Invitrogen, cat. 15140122), and 2.5% Matrigel (Corning Inc., Corning, NY, cat. 354248) for the first three passages. The 362531-283-R-J2-PDC and 782815-120-R-J1-PDC lines were cultured in 6C/Colon 1B media, which includes advanced DMEM/F-12 (Thermo Fisher Scientific, cat. 12634028), 10 mM HEPES (Thermo Fisher Scientific, cat. 15630080), 1X GlutaMAX supplement (Thermo Fisher Scientific, cat. 35050061), 0.1 mg/mL primocin (InvivoGen, San Diego, CA, cat. ant-pm-2), 10% defined fetal bovine serum, heat inactivated (HyClone Laboratories Inc., Logan, UT, cat. SH30070.03HI), 50% L-WRN conditioned media (ATCC, cat. CRL-3276), 1.25 mM N-Acetyl-L-cysteine (Sigma-Aldrich, cat. A9165), 10 mM nicotinamide (Sigma-Aldrich, cat. N0636), 1X B-27 supplement (Thermo Fisher Scientific, cat. 17504044), 1X N-2 supplement (Thermo Fisher Scientific, cat. 17502048), 50 ng/mL human EGF (Thermo Fisher Scientific, cat. PHG0311), and 10 microM Y-27632 dihydrochloride (Tocris Bioscience, cat. 1254). The K12877-001-R-J1-PDC line was cultured in 6I media, which includes all 6C/Colon 1B media plus 10 ng/mL human FGF-10 (PeproTech, cat. 100-26), 1 ng/mL human FGF-2 (PeproTech, cat. 100-18B), 1 µM prostaglandin E2 (Tocris Bioscience, cat. 2296), […] hydrocortisone (Sigma-Aldrich, cat. H4001), and […] bovine insulin (Sigma-Aldrich, cat. I6634). The K86415-001-R-J1-PDC line was cultured in 6D media, which includes all 6C/Colon 1B media components minus the L-WRN conditioned media. The 485176-168-R4-J1-PDC was cultured in PANC media, which includes all 6C/Colon 1B media plus 100 ng/mL human FGF-10 (PeproTech, cat. 100-26), 500 nM SB-431542 (Selleckchem, cat. S1067), and 10 nM gastrin (Tocris Bioscience, cat. 3006). […]

[1] = second compound 0.0316 µM, first compound 0.00316 µM
[2] = second compound 0.0316 µM, first compound 0.01 µM
[3] = second compound 0.0316 µM, first compound 0.0316 µM
[4] = second compound 0.0316 µM, first compound 0.1 µM
[5] = second compound 0.0316 µM, first compound 0.316 µM
[6] = second compound 0.0316 µM, first compound 1 µM
[7] = second compound 0.1 µM, first compound 0.00316 µM
[8] = second compound 0.1 µM, first compound 0.01 µM
[9] = second compound 0.1 µM, first compound 0.0316 µM
[10] = second compound 0.1 µM, first compound 0.1 µM
[11] = second compound 0.1 µM, first compound 0.316 µM
[12] = second compound 0.1 µM, first compound 1 µM
[13] = second compound 0.316 µM, first compound 0.00316 µM
[14] = second compound 0.316 µM, first compound 0.01 µM
[15] = second compound 0.316 µM, first compound 0.0316 µM
[16] = second compound 0.316 µM, first compound 0.1 µM
[17] = second compound 0.316 µM, first compound 0.316 µM
[18] = second compound 0.316 µM, first compound 1 µM
[19] = second compound 1 µM, first compound 0.00316 µM
[20] = second compound 1 µM, first compound 0.01 µM
[21] = second compound 1 µM, first compound 0.0316 µM
[22] = second compound 1 µM, first compound 0.1 µM
[23] = second compound 1 µM, first compound 0.316 µM
[24] = second compound 1 µM, first compound 1 µM
[25] = second compound 3.16 µM, first compound 0.00316 µM
[26] = second compound 3.16 µM, first compound 0.01 µM
[27] = second compound 3.16 µM, first compound 0.0316 µM
[28] = second compound 3.16 µM, first compound 0.1 µM
[29] = second compound 3.16 µM, first compound 0.316 µM
[30] = second compound 3.16 µM, first compound 1 µM
[31] = second compound 10 µM, first compound 0.00316 µM
[32] = second compound 10 µM, first compound 0.01 µM
[33] = second compound 10 µM, first compound 0.0316 µM
[34] = second compound 10 µM, first compound 0.1 µM
[35] = second compound 10 µM, first compound 0.316 µM
[36] = second compound 10 µM, first compound 1 µM
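Note: spheroids exposed to agents for one week before readout.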

Question: What does the source list for `C=CC(=O)Nc1cc(Nc2nccc(-c3cn(C)c4ccccc34)n2)c(OC)cc1N(C)CCN(C)C` + C#Cc1c(F)ccc2cc(O)cc(-c3ncc4c(N5CC6CCC(C5)N6)nc(OCC56CCCN5CC(F)C6)nc4c3F)c12?
Answer: IC50 (second compound 0.0316 µM): > 1000 nM; IC50 (second compound 0.1 µM): > 1000 nM; IC50 (second compound 0.316 µM): > 1000 nM; IC50 (second compound 1 µM): > 1000 nM; IC50 (second compound 3.16 µM): > 1000 nM; IC50 (second compound 10 µM): > 1000 nM; viability, T/C [1]: 95.4%; viability, T/C [2]: 107%; viability, T/C [3]: 108%; viability, T/C [4]: 106%; viability, T/C [5]: 113%; viability, T/C [6]: 94.3%; viability, T/C [7]: 108%; viability, T/C [8]: 102%; viability, T/C [9]: 102%; viability, T/C [10]: 102%; viability, T/C [11]: 119%; viability, T/C [12]: 97.7%; viability, T/C [13]: 103%; viability, T/C [14]: 108%; viability, T/C [15]: 106%; viability, T/C [16]: 106%; viability, T/C [17]: 108%; viability, T/C [18]: 102%; viability, T/C [19]: 105%; viability, T/C [20]: 99.4%; viability, T/C [21]: 101%; viability, T/C [22]: 115%; viability, T/C [23]: 101%; viability, T/C [24]: 95.3%; viability, T/C [25]: 107%; viability, T/C [26]: 100%; viability, T/C [27]: 106%; viability, T/C [28]: 102%; viability, T/C [29]: 87.5%; viability, T/C [30]: 95%; viability, T/C [31]: 106%; viability, T/C [32]: 95.1%; viability, T/C [33]: 89.1%; viability, T/C [34]: 94%; viability, T/C [35]: 81.4%; viability, T/C [36]: 79.2%

Question: Which IC50 (second compound 0.0316 µM) does the source give for `O=C(c1ccc(F)c(F)c1Nc1ccc(I)cc1F)N1CC(O)([C@@H]2CCCCN2)C1` + C#Cc1c(F)ccc2cc(O)cc(-c3ncc4c(N5CC6CCC(C5)N6)nc(OCC56CCCN5CC(F)C6)nc4c3F)c12 here?
Answer: > 1000 nM

Question: And the IC50 (second compound 0.1 µM)?
Answer: > 1000 nM

Question: And the IC50 (second compound 0.316 µM)?
Answer: > 1000 nM

Question: And the IC50 (second compound 1 µM)?
Answer: > 1000 nM

Question: What about the IC50 (second compound 3.16 µM) of the same molecule?
Answer: > 1000 nM

Question: And the IC50 (second compound 10 µM)?
Answer: > 1000 nM

Question: What about the viability, T/C [1] of the same molecule?
Answer: 119%

Question: And the viability, T/C [2]?
Answer: 102%

Question: What about the viability, T/C [3] of the same molecule?
Answer: 102%

Question: What about the viability, T/C [4] of the same molecule?
Answer: 81.9%

Question: And the viability, T/C [5]?
Answer: 77.9%

Question: And the viability, T/C [6]?
Answer: 58%

Question: What about the viability, T/C [7] of the same molecule?
Answer: 110%

Question: What about the viability, T/C [8] of the same molecule?
Answer: 107%

Question: What about the viability, T/C [9] of the same molecule?
Answer: 91.5%

Question: And the viability, T/C [10]?
Answer: 92.8%

Question: And the viability, T/C [11]?
Answer: 82.3%

Question: What about the viability, T/C [12] of the same molecule?
Answer: 57.1%

Question: And the viability, T/C [13]?
Answer: 108%

Question: What about the viability, T/C [14] of the same molecule?
Answer: 104%

Question: What about the viability, T/C [15] of the same molecule?
Answer: 94.9%

Question: What about the viability, T/C [16] of the same molecule?
Answer: 84.7%

Question: What about the viability, T/C [17] of the same molecule?
Answer: 74%

Question: What about the viability, T/C [18] of the same molecule?
Answer: 62.9%

Question: And the viability, T/C [19]?
Answer: 105%

Question: What about the viability, T/C [20] of the same molecule?
Answer: 116%

Question: And the viability, T/C [21]?
Answer: 87.9%

Question: And the viability, T/C [22]?
Answer: 93.7%

Question: What about the viability, T/C [23] of the same molecule?
Answer: 77.7%

Question: And the viability, T/C [24]?
Answer: 58.1%

Question: What about the viability, T/C [25] of the same molecule?
Answer: 110%

Question: And the viability, T/C [26]?
Answer: 103%

Question: And the viability, T/C [27]?
Answer: 92.8%

Question: And the viability, T/C [28]?
Answer: 86.5%

Question: What about the viability, T/C [29] of the same molecule?
Answer: 75.7%

Question: What about the viability, T/C [30] of the same molecule?
Answer: 62.9%

Question: And the viability, T/C [31]?
Answer: 102%

Question: What about the viability, T/C [32] of the same molecule?
Answer: 84.4%

Question: What about the viability, T/C [33] of the same molecule?
Answer: 82.8%

Question: And the viability, T/C [34]?
Answer: 85.6%

Question: And the viability, T/C [35]?
Answer: 78.9%

Question: And the viability, T/C [36]?
Answer: 63.8%
